Results reported in US20210395239A1 (Hoffmann-La Roche Inc., priority 2018, published 2021).

molecular target: T1, hTLR9 (Homo sapiens, UniProt Q9NR96); experiment: HEK293-Blue-hTLR-9 cells assay (SEAP reporter, ODN2006 stimulation); format: cell-based; parameters: host or cells: HEK293 (HEK-Blue hTLR9); conditions: HEK293-Blue-hTLR9 cells, ODN2006, 20 hrs; read-out: HEK/hTLR9 IC50
T1 sequence (Q9NR96 26-1032): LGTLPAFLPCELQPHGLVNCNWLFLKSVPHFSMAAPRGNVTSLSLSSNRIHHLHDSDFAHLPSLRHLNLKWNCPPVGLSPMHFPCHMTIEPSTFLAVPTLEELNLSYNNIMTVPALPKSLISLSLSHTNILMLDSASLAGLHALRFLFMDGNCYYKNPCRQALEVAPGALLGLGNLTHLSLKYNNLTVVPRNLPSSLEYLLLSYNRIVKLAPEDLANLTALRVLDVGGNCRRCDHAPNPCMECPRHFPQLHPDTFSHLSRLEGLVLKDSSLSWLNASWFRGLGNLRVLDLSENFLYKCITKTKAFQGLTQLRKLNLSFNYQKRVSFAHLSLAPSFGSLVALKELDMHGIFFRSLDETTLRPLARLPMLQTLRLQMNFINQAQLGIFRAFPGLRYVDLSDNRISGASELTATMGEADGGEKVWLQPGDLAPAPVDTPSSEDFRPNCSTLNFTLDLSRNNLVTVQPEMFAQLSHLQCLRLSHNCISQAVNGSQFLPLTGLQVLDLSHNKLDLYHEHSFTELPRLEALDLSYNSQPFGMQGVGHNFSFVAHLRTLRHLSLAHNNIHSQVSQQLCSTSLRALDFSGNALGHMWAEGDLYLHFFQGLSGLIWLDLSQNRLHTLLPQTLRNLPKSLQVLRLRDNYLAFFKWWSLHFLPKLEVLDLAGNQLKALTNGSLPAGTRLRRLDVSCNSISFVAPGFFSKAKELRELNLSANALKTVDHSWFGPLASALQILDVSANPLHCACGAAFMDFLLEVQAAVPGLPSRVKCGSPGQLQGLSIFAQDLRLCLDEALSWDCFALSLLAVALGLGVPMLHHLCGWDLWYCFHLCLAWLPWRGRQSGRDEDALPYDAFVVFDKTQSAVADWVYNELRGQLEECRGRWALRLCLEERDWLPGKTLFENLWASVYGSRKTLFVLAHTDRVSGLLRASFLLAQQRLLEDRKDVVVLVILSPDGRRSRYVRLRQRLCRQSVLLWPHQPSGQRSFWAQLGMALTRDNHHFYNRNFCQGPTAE
In short: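 HEK293-Blue-hTLR9 cells with NF-κB/AP-1-driven SEAP reporter treated with serially diluted compound (1% DMSO final) plus ODN2006 for 20 h at 37 °C. Supernatant SEAP measured with QUANTI-Blue, 2 h at 37 °C, absorbance 620–655 nm; antagonism seen as reduced reporter signal.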

In order of rising IC50:
1. [2H]c1ccc2c(N3C[C@H](CN4CCN(c5nc(C)cc(N6C[C@@H](N)[C@H](OC)C6)n5)CC4)O[C@H](C)C3)ccc(C#N)c2n1 [Example 144, 5-[(2S,6R)-2-[[4-[4-[(3R,4R)-3-amino-4-methoxy-pyrrolidin-1-yl]-6-methyl-pyrimidin-2-yl]piperazin-1-yl]methyl]-6-methyl-morpholin-4-yl]-2-deuterio-quinoline-8-carbonitrile]  31 nM
2. [2H]c1ccc2c(N3C[C@H](CN4CC(c5cnc(N6CC(C)(N)C6)cc5C)C4)O[C@H](C)C3)ccc(C#N)c2n1 [Example 145, 5-[(2S,6R)-2-[[3-[6-(3-amino-3-methyl-azetidin-1-yl)-4-methyl-3-pyridyl]azetidin-1-yl]methyl]-6-methyl-morpholin-4-yl]-2-deuterio-quinoline-8-carbonitrile]  31 nM
3. [2H]c1ccc2c(N3C[C@H](CN4CC(c5cnc(N6C[C@@H](N)[C@H](OC)C6)cc5C)C4)O[C@H](C)C3)ccc(C#N)c2n1 [Example 146, 5-[(2S,6R)-2-[[3-[6-[(3R,4R)-3-amino-4-methoxy-pyrrolidin-1-yl]-4-methyl-3-pyridyl]azetidin-1-yl]methyl]-6-methyl-morpholin-4-yl]-2-deuterio-quinoline-8-carbonitrile]  31 nM
4. C[C@@H]1CN(c2ccc(C#N)n3nccc23)C[C@H](CN2CC(c3ccc(N4CC(C)(N)C4)nc3)C2)O1 [Example 157, 4-[(2S,6R)-2-[[3-[6-(3-amino-3-methyl-azetidin-1-yl)-3-pyridyl]azetidin-1-yl]methyl]-6-methyl-morpholin-4-yl]pyrazolo[1,5-a]pyridine-7-carbonitrile]  31 nM
5. [2H]c1ccc2c(N3C[C@H](CN4CC(c5ccc(N6CC(C)(N)C6)cc5)C4)O[C@H](C)C3)ccc(C#N)c2n1 [Example 141, 5-[(2S,6R)-2-[[3-[4-(3-amino-3-methyl-azetidin-1-yl)phenyl]azetidin-1-yl]methyl]-6-methyl-morpholin-4-yl]-2-deuterio-quinoline-8-carbonitrile]  44 nM
6. [2H]c1ccc2c(N3C[C@H](CN4CC(O)(c5ccc(N6CC(C)(N)C6)cc5)C4)O[C@H](C)C3)ccc(C#N)c2n1 [Example 156, 5-[(2S,6R)-2-[[3-[4-(3-amino-3-methyl-azetidin-1-yl)phenyl]-3-hydroxy-azetidin-1-yl]methyl]-6-methyl-morpholin-4-yl]-2-deuterio-quinoline-8-carbonitrile]  46 nM
7. [2H]c1ccc2c(N3C[C@H](CN4CCN(c5ccc(N6CC7(CN(C)C7)C6)nc5)CC4)O[C@H](C)C3)ccc(C#N)c2n1 [Example 161, 2-deuterio-5-[(2R,6S)-2-methyl-6-[[4-[6-(6-methyl-2,6-diazaspiro[3.3]heptan-2-yl)-3-pyridyl]piperazin-1-yl]methyl]morpholin-4-yl]quinoline-8-carbonitrile]  59 nM
8. [2H]c1ccc2c(N3C[C@H](CN4CCN(c5ncc(N6C[C@@H](N)[C@H](OC)C6)cc5C)CC4)O[C@H](C)C3)ccc(C#N)c2n1 [Example 142, 5-[(2S,6R)-2-[[4-[5-[(3R,4R)-3-amino-4-methoxy-pyrrolidin-1-yl]-3-methyl-2-pyridyl]piperazin-1-yl]methyl]-6-methyl-morpholin-4-yl]-2-deuterio-quinoline-8-carbonitrile]  64 nM
9. [2H]c1ccc2c(N3C[C@H](CN4CC(c5ccc(N6C[C@@H](N)[C@H](OC)C6)nc5)C4)O[C@H](C)C3)ccc(C#N)c2n1 [Example 149, 5-[(2S,6R)-2-[[3-[6-[(3R,4R)-3-amino-4-methoxy-pyrrolidin-1-yl]-3-pyridyl]azetidin-1-yl]methyl]-6-methyl-morpholin-4-yl]-2-deuterio-quinoline-8-carbonitrile]  68 nM
10. [2H]c1ccc2c(N3C[C@H](CN4CCN(c5cccc(N6CC(C)(N)C6)n5)CC4)O[C@H](C)C3)ccc(C#N)c2n1 [Example 155, 5-[(2S,6R)-2-[[4-[6-(3-amino-3-methyl-azetidin-1-yl)-2-pyridyl]piperazin-1-yl]methyl]-6-methyl-morpholin-4-yl]-2-deuterio-quinoline-8-carbonitrile]  71 nM
11. Cc1cc(N2CC(C)(N)C2)cnc1N1CCN(C[C@H]2CN(c3ccc(C#N)n4ncc(F)c34)C[C@@H](C)O2)CC1 [Example 148, 4-[(2S,6R)-2-[[4-[5-(3-amino-3-methyl-azetidin-1-yl)-3-methyl-2-pyridyl]piperazin-1-yl]methyl]-6-methyl-morpholin-4-yl]-3-fluoro-pyrazolo[1,5-a]pyridine-7-carbonitrile]  75 nM
12. [2H]c1ccc2c(N3C[C@H](CN4CCN(c5ncc(N6CC(C)(N)C6)cc5C)CC4)O[C@H](C)C3)ccc(C#N)c2n1 [Example 139, 5-[(2S,6R)-2-[[4-[5-(3-amino-3-methyl-azetidin-1-yl)-3-methyl-2-pyridyl]piperazin-1-yl]methyl]-6-methyl-morpholin-4-yl]-2-deuterio-quinoline-8-carbonitrile]  78 nM
13. [2H]c1ccc2c(N3C[C@H](CN4CCN(c5ccc(N6C[C@@H]7C[C@H]6CN7)nc5)CC4)O[C@H](C)C3)ccc(C#N)c2n1 [Example 151, 2-deuterio-5-[(2S,6R)-2-[[4-[6-[(1S,4S)-2,5-diazabicyclo[2.2.1]heptan-2-yl]-3-pyridyl]piperazin-1-yl]methyl]-6-methyl-morpholin-4-yl]quinoline-8-carbonitrile]  96 nM
14. [2H]c1ccc2c(N3C[C@H](CN4CC(c5cccc(N6CC(C)(N)C6)n5)C4)O[C@H](C)C3)ccc(C#N)c2n1 [Example 159, 5-[(2S,6R)-2-[[3-[6-(3-amino-3-methyl-azetidin-1-yl)-2-pyridyl]azetidin-1-yl]methyl]-6-methyl-morpholin-4-yl]-2-deuterio-quinoline-8-carbonitrile]  100 nM
15. [2H]c1ccc2c(N3C[C@H](CN4CCN(c5ccc(N6C[C@H]7C[C@@H]6CN7)nc5)CC4)O[C@H](C)C3)ccc(C#N)c2n1 [Example 153, 2-deuterio-5-[(2S,6R)-2-[[4-[6-[(1R,4R)-2,5-diazabicyclo[2.2.1]heptan-2-yl]-3-pyridyl]piperazin-1-yl]methyl]-6-methyl-morpholin-4-yl]quinoline-8-carbonitrile]  113 nM
16. [2H]c1ccc2c(N3C[C@H](CN4CC(c5ccc(N6C[C@H](OC)[C@@H](N)C6)cc5)C4)O[C@H](C)C3)ccc(C#N)c2n1 [Example 140, 5-[(2S,6R)-2-[[3-[4-[(3S,4S)-3-amino-4-methoxy-pyrrolidin-1-yl]phenyl]azetidin-1-yl]methyl]-6-methyl-morpholin-4-yl]-2-deuterio-quinoline-8-carbonitrile]  162 nM
17. [2H]c1ccc2c(N3C[C@H](CN4CCN(c5ccc(N6C[C@H](N)[C@@H](F)C6)nc5)CC4)O[C@H](C)C3)ccc(C#N)c2n1 [Example 150, 5-[(2S,6R)-2-[[4-[6-[(3S,4S)-3-amino-4-fluoro-pyrrolidin-1-yl]-3-pyridyl]piperazin-1-yl]methyl]-6-methyl-morpholin-4-yl]-2-deuterio-quinoline-8-carbonitrile]  175 nM
18. [2H]c1ccc2c(N3C[C@H](CN4CCN(c5ccc(N6CC(C)(N)C6)c(C)n5)CC4)O[C@H](C)C3)ccc(C#N)c2n1 [Example 147, 5-[(2S,6R)-2-[[4-[5-(3-amino-3-methyl-azetidin-1-yl)-6-methyl-2-pyridyl]piperazin-1-yl]methyl]-6-methyl-morpholin-4-yl]-2-deuterio-quinoline-8-carbonitrile]  181 nM
